Publication PMC8545574, “Antioxidant, Anti-Inflammatory, and Antidiabetic Activities of Bioactive Compounds from the Fruits of Livistona chinensis Based on Network Pharmacology Prediction” (Oxidative Medicine and Cellular Longevity, 2021)

Legend:
[1] = DPPH free radical scavenging assay; assay type: biochemical; details: mean ± SD, n = 3
Method: The DPPH free radical scavenging assay was performed according to a previously reported method. A series of different concentrations of the tested samples and the positive control ascorbic acid were mixed with freshly prepared DPPH (0.2 mM) in a 96-well microplate with a total volume of 150 μL. After leaving the mixture to react in the dark for 30 min, its absorbance was determined at 517 nm. All of the wells with only samples were set as blanks to obtain an absorbance value, which was subtracted from the test sample readings. The percentage inhibition (%) for each sample was calculated by the following formula: (1) Inhibition %=Absblank−Abssamples/Absblank×100%, where Absblank and Abssamples correspond to the absorbance units (at 517 nm) of DPPH solutions incubated in the absence and presence of the tested samples.

[2] = ABTS radical cation scavenging assay; assay type: biochemical; details: mean ± SD, n = 3
Method: The ABTS radical cation (ABTS·+) was prepared by reacting ABTS with potassium persulfate following the method previously described. The ABTS radical cation (ABTS·+) was prepared by mixing with 2.45 mM potassium persulfate and equal volumes of an ABTS solution (7 mM), and then, they were permitted to react in the darkness at room temperature for 12–16 h. Thereafter, the ABTS reagent was diluted with methyl alcohol until reaching an absorbance of 0.70 ± 0.02 units at 734 nm. In a 96-well microplate, ABTS reagent (190 μL in each well) and samples (10 μL in each well) were incubated at room temperature for 20 min. To determine the antioxidant capacity by the ABTS method, the experimental conditions and protocol were identical to those of the DPPH assay. The only difference was that the absorbance was measured at 734 nm.

[3] = system: LPS-stimulated NO release in RAW 264.7 cells; test: Nitrite (Griess) assay of LPS-stimulated NO release; assay type: cell-based; details: Mus musculus, RAW264.7, LPS (1 μg/mL)-stimulated RAW 264.7 cells; mean ± SD, n = 3; read-out: IC50 NO production anti-inflammatory effect
Method: The level of NO production was tested by measuring the nitrite level in the culture medium with the Griess method. Cells were seeded at a density of 2 × 10^4 cells per well in 96-well plates. […] A microplate reader was employed for the optical density measurement at 570 nm.

PTP1B = biological target: T1, PTP1B (Homo sapiens, UniProt P18031); test: PTP1B inhibitory assay (p-NPP substrate)
T1 sequence (P18031 1-321 limits assumed): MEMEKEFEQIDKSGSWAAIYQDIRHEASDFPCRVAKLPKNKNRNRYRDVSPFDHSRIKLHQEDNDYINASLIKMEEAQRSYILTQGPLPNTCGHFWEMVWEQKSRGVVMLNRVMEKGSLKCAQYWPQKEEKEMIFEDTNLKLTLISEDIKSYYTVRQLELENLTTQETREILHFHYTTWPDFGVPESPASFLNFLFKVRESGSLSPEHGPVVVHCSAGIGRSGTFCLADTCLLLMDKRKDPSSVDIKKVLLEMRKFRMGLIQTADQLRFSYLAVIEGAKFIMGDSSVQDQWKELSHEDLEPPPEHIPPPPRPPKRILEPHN
Method: PTP1B (10 μg/mL stock solution) was dissolved in 10 mM citrate buffer (pH 6.0), 1 mM dithiothreitol (DTT), and 1 mM N, N, N′, N′-ethylenediaminetetraacetate (EDTA). 20.0 μL PTP1B stock solution and 60 μL citrate buffer were added to each well of a 96-well plastic plate.

[4] = biological target: α-Glucosidase (from Baker's yeast); test: α-Glucosidase inhibitory assay (p-NPG substrate); details: read-out: IC50 α-Glucosidase inhibitory effect; mean ± SD, n = 3
Method: The extract, fractions, and compounds were dissolved in 5% DMSO and then diluted with phosphate buffer. Briefly, 80 μL PBS, 20 μL of varying concentrations of sample solutions, and 20 μL α-glucosidase solution (1.3 U/mL) were mixed and incubated in 96-well plates at 37°C for 5 min. The reaction started when 20 μL p-nitrophenyl-α-D-glucopyranoside (2.5 mM) was added to the plate. The reaction mixture was incubated for 15 min at 37°C, and then, 80 μL Na2CO3 (0.2 M) was added to stop the reaction.

[5] = system: insulin-resistant HepG2 cells; test: Glucose consumption by insulin-resistant HepG2 cells; assay type: cell-based, human; details: insulin resistance model of HepG2 cells; compounds at the dose of 50 μM; 24 h
Method: HepG2 cells were cultivated in DMEM (without phenol red) containing 10% fetal bovine serum at 37°C in a humidified 5% CO2 atmosphere. An insulin-resistant cell model was established in accordance with a previous method, with some modifications. Cells were seeded in a 96-well plate with 1 × 10^4 cells per well. After incubation for 24 h, the medium was replaced with serum-free medium (without phenol red) containing 5 × 10^−6 mol/L insulin and incubated for 24 h. The cell culture medium was then replaced with the samples at different concentrations. The compounds were first dissolved in DMSO and subsequently diluted with medium containing 1% FBS to achieve different concentrations. The final concentration of DMSO was no more than 0.1%. At the end of the 24 h incubation, glucose in the medium was measured using the glucose oxidase-peroxidase method kit (Nanjing Jiancheng Biological Co., Ltd.). The amount of glucose consumption was calculated as follows: (glucose of the DMEM − glucose concentration of each well).

Row | SMILES | IC50 [1] [µM] | IC50 [2] [µM] | IC50 [3] [µM] | IC50 (PTP1B) [µM] | IC50 [4] [µM] | increase of glucose consumption [5] [%]
1 | COc1cc([C@@H](O)[C@H](CO)Oc2ccc(CCCO[C@@H]3O[C@H](CO)[C@@H](O)[C@H](O)[C@H]3O)cc2OC)ccc1O [Compound 22, erythro-(7R,8S)-4,7,9,9′-tetrahydroxy-3,3′-dimethoxy-8-O-4′-neolignan-9′-O-β-D-glucopyranoside] | > 100 | 26.97 ± 0.21 | 83.16 ± 0.24 | 92.39 ± 0.71 | 73.1 ± 2.33 | –
2 | COc1cc([C@H](O)[C@H](CO)Oc2ccc(CCCO[C@@H]3O[C@H](CO)[C@@H](O)[C@H](O)[C@H]3O)cc2OC)ccc1O [Compound 23, threo-(7R,8R)-4,7,9,9′-tetrahydroxy-3,3′-dimethoxy-8-O-4′-neolignan-9′-O-β-D-glucopyranoside] | > 100 | 68.2 ± 0.76 | 73.16 ± 0.34 | 90.06 ± 0.47 | 82.12 ± 0.56 | –
3 | CN(CCOc1ccc(CC2SC(=O)NC2=O)cc1)c1ccccn1 (stereo not shown) [rosiglitazone, reference compound] | – | – | – | – | – | 46.7

The next lines start with results.

Row | IC50 [1] [µM] | IC50 [2] [µM] | IC50 [3] [µM] | IC50 (PTP1B) [µM] | IC50 [4] [µM] | SMILES | increase of glucose consumption [5] [%]
4 | 95.7 ± 2.44 | 25.58 ± 0.12 | 55.5 ± 1.85 | 26.75 ± 0.21 | 34.4 ± 0.5 | COc1cc([C@H]2OC[C@H]3[C@@H]2CO[C@@H]3c2cc(OC)c(O)c(OC)c2)ccc1O [Compound 30, (+)-medioresinol] | –
5 | 96.4 ± 2.26 | 40.63 ± 0.23 | 46.2 ± 0.67 | 81.93 ± 0.78 | 5.71 ± 0.17 | COc1cc([C@@H](O)[C@H](CO)Oc2ccc([C@@H]3OC[C@@H]4[C@H]3CO[C@H]4c3ccc(O)c(OC)c3)cc2OC)ccc1O [Compound 32] | –
6 | 65.9 ± 1.52 | 31.18 ± 0.24 | 26.2 ± 0.19 | 63.16 ± 0.3 | 19.7 ± 0.21 | COc1cc([C@@H](O)[C@H](CO)Oc2c(OC)cc([C@@H]3OC[C@@H]4[C@H]3CO[C@H]4c3cc(OC)c(O)c(OC)c3)cc2OC)ccc1O [Compound 35, (7R,7′R,7^″R,8S,8′S,8^″S)-4′,4^″-dihydroxy-3,3′,3^″,5,5′-pentamethoxy-7,9′:7′,9-diepoxy-4,8^″-oxy-8,8′-sesquineolignan-7^″,9^″-diol] | –
7 | 62.44 ± 0.42 | 31.1 ± 0.44 | 79.7 ± 1.17 | 63.19 ± 0.33 | 22.7 ± 1.07 | COc1cc([C@H]2OC[C@H]3[C@H]2CO[C@@H]3c2cc(OC)c(O[C@@H](CO)[C@@H](O)c3cc(OC)c(O)c(OC)c3)c(OC)c2)cc(OC)c1O [Compound 36, (7S,7′S,7^″S,8R,8′R,8^″R)-4′,4^″-dihydroxy-3,3′,3^″,5,5′,5^″-hexamethoxy-7,9′:7′,9-diepoxy-4,8^″-oxy-8,8′-sesquineolignan-7^″,9^″-diol] | –
